In patent publication US6706493B2, “DNA encoding a cholecystokinin receptor” (The United States of America as represented by the …, priority 1992, dated 2004):
Where no end group is shown, it is not given here.

Columns and labels:
[1] = test system: acetylcholine receptor; test: L-364,718 on ACh response in oocytes injected with ACh receptor mRNA; type: cell-based
From the text: (§1) Inhibition was specific for CCKA receptors (i.e., there was no inhibition of SP or ACh response in oocytes injected with their respective receptor mRNAs).

[2] = biological target: T1, substance P receptor (Rattus norvegicus, UniProt P14600); test: L-364,718 on SP response in oocytes injected with SP receptor mRNA; type: cell-based
T1 construct: expressed in transfected cells; host or cells: Xenopus oocytes injected with receptor mRNA
T1 sequence (P14600 whole entry): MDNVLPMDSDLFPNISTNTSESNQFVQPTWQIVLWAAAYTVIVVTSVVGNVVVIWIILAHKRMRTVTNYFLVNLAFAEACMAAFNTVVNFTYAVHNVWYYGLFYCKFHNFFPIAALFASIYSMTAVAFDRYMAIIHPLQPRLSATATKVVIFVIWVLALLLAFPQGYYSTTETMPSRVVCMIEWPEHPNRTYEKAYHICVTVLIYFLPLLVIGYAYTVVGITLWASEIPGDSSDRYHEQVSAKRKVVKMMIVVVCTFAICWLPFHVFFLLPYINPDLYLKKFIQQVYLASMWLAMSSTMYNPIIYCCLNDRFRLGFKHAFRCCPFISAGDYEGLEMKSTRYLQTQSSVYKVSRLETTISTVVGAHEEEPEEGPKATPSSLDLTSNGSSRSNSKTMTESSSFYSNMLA
From the text: as §1

[3] = biological target: T2, CCKB receptor (Rattus norvegicus, UniProt P30553); details: COS-7 cells, rat CCKB receptor cDNA, 50 pM radioligand
T2 sequence (P30553 1-452): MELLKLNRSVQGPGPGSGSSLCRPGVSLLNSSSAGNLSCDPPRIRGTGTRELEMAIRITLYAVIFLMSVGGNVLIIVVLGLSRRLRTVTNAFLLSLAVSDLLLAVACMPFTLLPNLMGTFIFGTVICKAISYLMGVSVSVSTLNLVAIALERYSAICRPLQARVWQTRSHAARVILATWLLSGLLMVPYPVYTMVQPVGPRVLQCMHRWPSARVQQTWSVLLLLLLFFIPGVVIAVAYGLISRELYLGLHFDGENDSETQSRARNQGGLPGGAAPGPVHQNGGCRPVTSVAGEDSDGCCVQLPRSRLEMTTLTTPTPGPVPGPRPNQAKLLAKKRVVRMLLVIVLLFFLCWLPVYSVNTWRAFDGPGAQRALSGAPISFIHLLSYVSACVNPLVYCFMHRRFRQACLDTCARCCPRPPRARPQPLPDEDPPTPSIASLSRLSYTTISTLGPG
Experimental: Each experiment was performed in duplicate and the results given are the means from at least two separate experiments.
Two micrograms of PCDL-SRα containing either the CCKA coding region insert subcloned at an Xba 1 site in the sense orientation or the CCKB insert subcloned at an Eco R1 site in the sense orientation were transfected into a near confluent 100 mm tissue culture plate containing approximately 1×10^6 COS-7 cells using a DEAE/dextran method. Approximately 48 hours post transfection, the cells were washed twice with phosphate buffered saline (PBS), pH 7.4, 0.1% BSA at 4° C., scraped from the plate in Dulbeccols Modified Eagle's Medium (DMEM), 0.1% BSA, 4° C., centrifuged at 400×G, and resuspended at approximately 3-105 cells per ml in DMEM, 0.1% BSA, 4° C. […] Cells were subsequently washed three times with 2 ml PBS, 0.1% BSA, 4° C. by filtration on glass filters (Whatman GF/B) using a suction manifold (Millipore). Filters were assayed for gamma radioactivity (Packard, Auto-Gamma).

[4] = biological target: T3, CCKA receptor (Rattus norvegicus, UniProt P30551); test: Ligand-induced chloride current in Xenopus oocytes injected with rat CCKA receptor mRNA; type: cell-based; details: oocytes voltage clamped at -70 mV, 1 and 2 days after injection; FIG. 5A: 1 μM CCK-8, 1 μM gastrin-releasing peptide, 4 μM substance P
T3 construct: expressed in transfected cells; host or cells: Xenopus oocytes injected with in vitro transcribed RNA (clone nt 5 to 1506 in pcDNA-1)
T3 sequence (P30551 1-444): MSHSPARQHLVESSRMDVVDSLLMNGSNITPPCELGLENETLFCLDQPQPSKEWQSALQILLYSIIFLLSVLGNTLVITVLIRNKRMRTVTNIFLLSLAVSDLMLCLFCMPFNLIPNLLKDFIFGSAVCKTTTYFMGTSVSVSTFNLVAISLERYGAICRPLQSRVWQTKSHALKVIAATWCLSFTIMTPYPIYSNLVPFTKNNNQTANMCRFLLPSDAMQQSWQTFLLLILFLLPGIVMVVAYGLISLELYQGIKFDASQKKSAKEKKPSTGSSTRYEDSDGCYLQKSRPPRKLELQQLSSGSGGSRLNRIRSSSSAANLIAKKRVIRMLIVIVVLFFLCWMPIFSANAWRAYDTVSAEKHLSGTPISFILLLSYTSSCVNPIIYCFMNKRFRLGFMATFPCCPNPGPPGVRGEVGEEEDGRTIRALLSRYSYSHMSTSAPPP
Experimental: FIGS. 5A and 5B. Expression of the CCKA receptor in Xenopus oocytes. Ligand, induced chloride currents measured in the same oocytes one (A) and two (B) days after injection of mRNA (25 ng) in vitro transcribed from CCKA receptor cDNA cloned from rat pancreas. A. Response to agonists.
DNA was in vitro transcribed using T7 RNA polymerase from a CCK receptor clone template (5 to 1506, FIG. 1, SEQ NO:13) in pcDNA-1 (5 μg linearized with Apa 1) in the presence of the cap analog m^7G(5′)ppp(5′)G as recommended by the manufacturer (Promega). Xenopus oocytes were injected with 50 nl of approximately 25 ng of transcribed RNA. At 1-2 days, oocytes were voltage clamped at −70 mV, ligands were applied rapidly and directly to the constantly perfused bath and the ligand dependent Cl^− current measured.

Compound: CN1C(=O)[C@@H](NC(=O)c2cc3ccccc3[nH]2)N=C(c2ccccc2)c2ccccc21 [L-364,718]
- inhibition of ACh response [1]: no inhibition
- inhibition of SP response [2]: no inhibition

Compound: Cc1cccc(NC(=O)N[C@@H]2N=C(c3ccccc3)c3ccccc3N(C)C2=O)c1 [L-365,260]
- potency at inhibiting 125I-BH-CCK-8 binding relative to L-364,718 [3]: 10-100 fold

Compound: gastrin-releasing peptide (VPLPAGGGTVLTKMYPRGNHWAVGHLM; ends and bridges not checked; UniProt P07492 24-50, looked up)
- response of oocytes to agonist (ligand dependent Cl- current) [4]: not

Compound: substance P
- response of oocytes to agonist (ligand dependent Cl- current) [4]: not
